The subject of one data set is 4T1.2 tumours. Kind of data set: 4T1.2 tumour model: tumour growth inhibition. It counts as in vivo, Balb/c mice. Conditions: day 18, PG545 15 mg/kg weekly, antibody 200 μg intraperitoneally days 1, 4, 8, 11, 15. The protocol:
Female Balb/c mice (Age 8 weeks; Walter and Eliza Hall Institute of Medical Research (WEHI), Victoria Australia) were inoculated in the intramammary fatpad with 1×10^5 4T1.2 cells in phosphate buffered saline. 4T1.2 is a mouse mammary tumour model.
The experiment was ended on day 18 or earlier if an ethical endpoint was met. Blood was collected via cardiac bleed and serum was prepared and frozen at −80° C.
The percentage tumour growth inhibition was determined according to the following formula: 100×(1−ΔT/ΔC) where ΔC and ΔT were calculated by subtracting the mean tumour volume in each group on day 1 of treatment from the mean tumour volume on the day of analysis. Statistical analysis of the in vivo data was performed using Graph Pad Prism Version 6.0 (Graph Pad La Jolla, Calif.). An ANOVA analysis was performed followed by Dunnett's post hoc test to compare the tumour growth in the treated groups to the vehicle control.

In the next data set the test system is dendritic cell (DC). Conditions: cited from earlier work.
In data set [1] the test system is tumour-associated macrophages (TAMs) and myeloid-derived suppressor cells (MDSCs). Conditions: preclinical pancreatic cancer models, chemically-induced skin cancer model; cited from earlier work.
For data set [2] the following is noted: mouse, in vivo, 20 mg/kg. The protocol:
Mice were weighed and tumours measured 2-3 times weekly using electronic callipers. Tumour volume (mm^3) was calculated as length (mm)/2×width (mm)^2. One week following implantation mice with similar sized tumours (mean tumour volume 56 mm^3) were randomised into 4 groups of 6 animals (Day 1). Treatment groups were saline+control antibody, PG545+control antibody, saline+anti-PD-1 and PG545+anti-PD-1.
[…] Mice received a small dish containing a food supplement (Ensure mixed with food dust) daily.
In FIG. 1, the data represent the mean percent weight change from day 1 for each group; bars are standard error of the mean (SEM). […] It was decided to harvest the experiment on day 18.

A further data set deals with advanced solid tumours. The settings on record: cited from earlier work.

These results are taken from patent publication US11298369B2, “Composition and uses thereof” (Progen PG500 Series Pty Ltd, priority 2016, dated 2022).

For `CC(C)CCC[C@@H](C)[C@H]1CC[C@H]2[C@@H]3CC[C@H]4C[C@@H](O[C@@H]5O[C@H](COS(=O)(=O)[O-])[C@@H](O[C@H]6O[C@H](COS(=O)(=O)[O-])[C@@H](O[C@H]7O[C@H](COS(=O)(=O)[O-])[C@@H](O[C@H]8O[C@H](COS(=O)(=O)[O-])[C@@H](OS(=O)(=O)[O-])[C@H](OS(=O)(=O)[O-])[C@H]8OS(=O)(=O)[O-])[C@H](OS(=O)(=O)[O-])[C@H]7OS(=O)(=O)[O-])[C@H](OS(=O)(=O)[O-])[C@H]6OS(=O)(=O)[O-])[C@H](OS(=O)(=O)[O-])[C@H]5OS(=O)(=O)[O-])CC[C@]4(C)[C@H]3CC[C@]12C.[Na+].[Na+].[Na+].[Na+].[Na+].[Na+].[Na+].[Na+].[Na+].[Na+].[Na+].[Na+].[Na+]` [PG545, 3β,5α-Cholestanyl 2,3,4,6-tetra-O-sodium sulfonato-α-D-glucopyranosyl-(1→4)-2,3,6-tri-O-sodium sulfonato-α-D-glucopyranosyl-(1→4)-2,3,6-tri-O-sodium sulfonato-α-D-glucopyranosyl-(1→4)-2,3,6-tri-O-sodium sulfonato-β-D-glucopyranoside], in the data set with 4T1.2 tumours, the “Tumour growth inhibition (% TGI)” value came out at 68%. For the same molecule, the “Activation of T cells” value with dendritic cell (DC) (PG545 alone, naïve mice and mice bearing A20 lymphoma tumours) is on record as “does not activate T cells”. For the same molecule, in the data set with dendritic cell (DC) (via effect on DCs), the “Activation of NK cells” value is listed as “potent activation”. The “TAMs and MDSCs within the tumour microenvironment” value in data set [1] was “depletion”. Besides, the “Tolerability (maximum tolerated dose issues)” value in data set [2] is on record as “body weight issues”. The “Reductions in tumour size” value in the data set with advanced solid tumours (PG545 monotherapy) was “did not lead to reductions in tumour size”. The Maximum tolerated dose with advanced solid tumours (once weekly IV infusion, patients with advanced solid tumours) is 100 mg.
